From patent publication US8354441B2, “Oxazoline derivatives” (Hoffmann-La Roche Inc., priority 2009, dated 2013)

Columns and labels:
[1] = biological target: T1, mouse TAAR1 (Mus musculus, UniProt Q923Y8); assay: TAAR1 radioligand binding with [3H]-rac-2-(1,2,3,4-tetrahydro-1-naphthyl)-2-imidazoline, membranes of stably transfected HEK293 cells; conditions: first value of the cell, read-out: Ki (μM) mouse/rat: mouse
T1 construct: expressed in transfected cells; host or cells: HEK293 (ATCC # CRL-1573), stably transfected with pIRESneo2 expression plasmid
Description: (§1) For the construction of expression plasmids the coding sequences of human, rat and mouse TAAR 1 were amplified from genomic DNA essentially as described by Lindemann et al.. The Expand High Fidelity PCR System (Roche Diagnostics) was used with 1.5 mM Mg^2+ and purified PCR products were cloned into pCR2.1-TOPO cloning vector (Invitrogen) following the instructions of the manufacturer. PCR products were subcloned into the pIRESneo2 vector (BD Clontech, Palo Alto, Calif.), and expression vectors were sequence verified before introduction in cell lines.
(§2) HEK293 cells (ATCC # CRL-1573) were cultured essentially as described by Lindemann et al. (2005). For the generation of stably transfected cell lines HEK293 cells were transfected with the pIRESneo2 expression plasmids containing the TAAR coding sequences (described above) with Lipofectamine 2000 (Invitrogen) according to the instructions of the manufacturer, and 24 hrs post transfection the culture medium was supplemented with 1 mg/ml G418 (Sigma, Buchs, Switzerland). After a culture period of about 10 d clones were isolated, expanded and tested for responsiveness to trace amines (all compounds purchased from Sigma) with the cAMP Biotrak Enzyme immunoassay (EIA) System (Amersham) following the non-acetylation EIA procedure provided by the manufacturer.
(§3) Cells at confluence were rinsed with ice-cold phosphate buffered saline without Ca^2+ and Mg^2+ containing 10 mM EDTA and pelleted by centrifugation at 1000 rpm for 5 min at 4° C. The pellet was then washed twice with ice-cold phosphate buffered saline and the cell pellet was frozen immediately by immersion in liquid nitrogen and stored until use at −80° C. The cell pellet was then suspended in 20 ml HEPES-NaOH (20 mM), pH 7.4 containing 10 mM EDTA, and homogenized with a Polytron (PT 3000, Kinematica) at 10,000 rpm for 10 s. The homogenate was centrifuged at 48,000×g for 30 min at 4° C. and the pellet resuspended in 20 ml HEPES-NaOH (20 mM), pH 7.4 containing 0.1 mM EDTA (buffer A), and homogenized with a Polytron at 10,000 rpm for 10 s. The homogenate was then centrifuged at 48,000×g for 30 min at 4° C. and the pellet resuspended in 20 ml buffer A, and homogenized with a Polytron at 10,000 rpm for 10 s. Protein concentration was determined by the method of Pierce (Rockford, Ill.). The homogenate was then centrifuged at 48,000×g for 10 min at 4° C., resuspended in HEPES-NaOH (20 mM), pH 7.0 including MgCl2 (10 mM) and […] homogenized with a Polytron at 10,000 rpm for 10 s.
(§4) The binding assay was performed at 4° C. in a final volume of 1 ml, and with an incubation time of 30 min. The radioligand [^3H]-rac-2-(1,2,3,4-tetrahydro-1-naphthyl)-2-imidazoline was used at a concentration equal to the calculated Kd value of 60 nM to give a bound at around 0.1% of the total added radioligand concentration, and a specific binding which represented approximately 70-80% of the total binding. Non-specific binding was defined as the amount of [^3H]-rac-2-(1,2,3,4-tetrahydro-1-naphthyl)-2-imidazoline bound in the presence of the appropriate unlabelled ligand (10 μM). Competing ligands were tested in a wide range of concentrations (10 pM-30 μM). […] Each experiment was performed in duplicate. All incubations were terminated by rapid filtration through UniFilter-96 plates (Packard Instrument Company) and glass filter GF/C, pre-soaked for at least 2 h in polyethylenimine 0.3%, and using a Filtermate 96 Cell Harvester (Packard Instrument Company). The tubes and filters were then washed 3 times with 1 ml aliquots of cold buffer B. Filters were not dried and soaked in Ultima gold (45 μl/well, Packard Instrument Company) and bound radioactivity was counted by a TopCount Microplate Scintillation Counter (Packard Instrument Company).

[2] = biological target: T2, rat TAAR1 (Rattus norvegicus, UniProt Q923Y9); assay: as above; conditions: second value of the cell, read-out: Ki (μM) mouse/rat: rat
T2 construct: expressed in transfected cells; host or cells: HEK293 (ATCC # CRL-1573), stably transfected with pIRESneo2 expression plasmid
Description: as §1, §2, §3, §4

T2 sequence (Q923Y9 whole entry): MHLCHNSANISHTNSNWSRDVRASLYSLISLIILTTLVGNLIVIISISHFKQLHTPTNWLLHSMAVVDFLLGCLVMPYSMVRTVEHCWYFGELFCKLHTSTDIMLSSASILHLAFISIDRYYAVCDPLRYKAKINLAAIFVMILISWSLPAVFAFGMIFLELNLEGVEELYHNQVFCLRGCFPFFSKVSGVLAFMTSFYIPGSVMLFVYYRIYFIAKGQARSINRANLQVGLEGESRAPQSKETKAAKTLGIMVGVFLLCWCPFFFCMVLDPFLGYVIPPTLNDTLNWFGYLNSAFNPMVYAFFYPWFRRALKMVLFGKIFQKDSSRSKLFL
T1 sequence (Q923Y8 whole entry): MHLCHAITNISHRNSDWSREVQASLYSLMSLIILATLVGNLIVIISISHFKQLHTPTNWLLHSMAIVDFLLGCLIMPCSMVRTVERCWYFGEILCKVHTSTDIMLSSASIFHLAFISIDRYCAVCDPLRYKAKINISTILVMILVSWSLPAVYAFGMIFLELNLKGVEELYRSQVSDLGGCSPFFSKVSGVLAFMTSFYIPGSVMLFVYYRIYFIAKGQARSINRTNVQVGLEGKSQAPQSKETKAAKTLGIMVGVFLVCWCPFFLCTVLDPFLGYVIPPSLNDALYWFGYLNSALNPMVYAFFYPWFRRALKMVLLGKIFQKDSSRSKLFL

**Q.** What does the source list for `NC1=N[C@@H](CCc2ccc(NC(=O)C3(C(F)(F)F)CC3)cc2)CO1` [Example 52, 1-Trifluoromethyl-cyclopropanecarboxylic acid {4-[2-((S)-2-amino-4,5-dihydro-oxazol-4-yl)-ethyl]-phenyl}-amide]?
**A.** Ki [1]: 0.0073 µM; Ki [2]: 0.006 µM

**Q.** `NC1=N[C@@H](CCc2ccc(NC(=O)C3CCC(F)(F)CC3)cc2)CO1` [Example 40, 4,4-Difluoro-cyclohexanecarboxylic acid {4-[2-((S)-2-amino-4,5-dihydro-oxazol-4-yl)-ethyl]-phenyl}-amide] was tested. Which Ki [1] did it give?
**A.** 0.0036 µM

**Q.** And the Ki [2]?
**A.** 0.0187 µM

**Q.** For `C[C@H]1OC(N)=N[C@H]1CCc1ccc(NC(=O)c2ccc(Cl)cc2)cc1` [Example 206, N-(4-(2-((4S,5R)-2-Amino-5-methyl-4,5-dihydrooxazol-4-yl)ethyl)phenyl)-4-chlorobenzamide], which Ki [1] is on record?
**A.** 0.0076 µM

**Q.** What about the Ki [2] of the same molecule?
**A.** 0.0013 µM

**Q.** Which Ki [1] does the source give for `Cc1cc(C(=O)Nc2ccc(CC[C@H]3COC(N)=N3)cc2)ncc1Cl` [Example 155, (S)-N-(4-(2-(2-Amino-4,5-dihydrooxazol-4-yl)ethyl)phenyl)-5-chloro-4-methylpicolinamide] here?
**A.** 0.0004 µM

**Q.** What about the Ki [2] of the same molecule?
**A.** 0.0006 µM

**Q.** What does the source list for `COc1cc(C(=O)Nc2ccc(CC[C@H]3COC(N)=N3)cc2)nc(C(C)C)n1` [Example 207, 2-Isopropyl-6-methoxy-pyrimidine-4-carboxylic acid {4-[2-((S)-2-amino-4,5-dihydro-oxazol-4-yl)-ethyl]-phenyl}-amide]?
**A.** Ki [1]: 0.0007 µM; Ki [2]: 0.0011 µM

**Q.** `NC1=N[C@@H](CCc2ccc(NC(=O)c3cccc(Cl)c3)cc2)CO1` [Example 18, N-{4-[2-((S)-2-Amino-4,5-dihydro-oxazol-4-yl)-ethyl]-phenyl}-3-chloro-benzamide] was tested. Which Ki [1] did it give?
**A.** 0.0002 µM

**Q.** What about the Ki [2] of the same molecule?
**A.** 0.0002 µM

**Q.** `NC1=N[C@@H](CCc2ccc(NC(=O)c3ccnc(Cl)c3)cc2)CO1` [Example 173, (S)-N-(4-(2-(2-Amino-4,5-dihydrooxazol-4-yl)ethyl)phenyl)-2-chloroisonicotinamide] was tested. Which Ki [1] did it give?
**A.** 0.0014 µM

**Q.** What about the Ki [2] of the same molecule?
**A.** 0.0014 µM

**Q.** `CCc1cnc(C(=O)Nc2ccc(CC[C@H]3COC(N)=N3)cc2)cn1` [Example 208, (S)-N-(4-(2-(2-Amino-4,5-dihydrooxazol-4-yl)ethyl)phenyl)-5-ethylpyrazine-2-carboxamide] was tested. Which Ki [1] did it give?
**A.** 0.0028 µM

**Q.** What about the Ki [2] of the same molecule?
**A.** 0.0023 µM

**Q.** With `CCOc1ccc(C(=O)Nc2ccc(CC[C@H]3COC(N)=N3)cc2)cc1` [Example 60, N-{4-[2-((S)-2-Amino-4,5-dihydro-oxazol-4-yl)-ethyl]-phenyl}-4-ethoxy-benzamide] as the molecule, how does the Ki [1] read?
**A.** 0.001 µM

**Q.** And the Ki [2]?
**A.** 0.0006 µM

**Q.** `NC1=N[C@@H](CCc2ccc(NC(=O)C3CC3)cc2)CO1` [Example 46, Cyclopropanecarboxylic acid {4-[2-((S)-2-amino-4,5-dihydro-oxazol-4-yl)-ethyl]-phenyl}-amide] was tested. Which Ki [1] did it give?
**A.** 0.0042 µM

**Q.** And the Ki [2]?
**A.** 0.0018 µM

**Q.** Which Ki [1] does the source give for `NC1=N[C@@H](CCc2ccc(NC(=O)c3nc(Cl)ccc3F)cc2)CO1` [Example 89, 6-Chloro-3-fluoro-pyridine-2-carboxylic acid {4-[2-((S)-2-amino-4,5-dihydro-oxazol-4-yl)-ethyl]-phenyl}-amide] here?
**A.** 0.0044 µM

**Q.** And the Ki [2]?
**A.** 0.0007 µM

**Q.** For `NC1=N[C@@H](CCc2ccc(NC(=O)c3ccc(Cl)s3)cc2)CO1` [Example 169, (S)-N-(4-(2-(2-Amino-4,5-dihydrooxazol-4-yl)ethyl)phenyl)-5-chlorothiophene-2-carboxamide], which Ki [1] is on record?
**A.** 0.0005 µM

**Q.** And the Ki [2]?
**A.** 0.0001 µM

**Q.** `NC1=N[C@@H](CCc2ccc(NC(=O)C3(c4ccc(Cl)cc4)CC3)cc2)CO1` [Example 53, 1-(4-Chloro-phenyl)-cyclopropanecarboxylic acid {4-[2-((S)-2-amino-4,5-dihydro-oxazol-4-yl)-ethyl]-phenyl}-amide] was tested. Which Ki [1] did it give?
**A.** 0.0009 µM

**Q.** What about the Ki [2] of the same molecule?
**A.** 0.0016 µM

**Q.** With `NC1=N[C@@H](CCc2ccc(NC(=O)c3cccc(Br)n3)cc2)CO1` [Example 112, 6-Bromo-pyridine-2-carboxylic acid {4-[2-((S)-2-amino-4,5-dihydro-oxazol-4-yl)-ethyl]-phenyl}-amide] as the molecule, how does the Ki [1] read?
**A.** 0.0013 µM

**Q.** What about the Ki [2] of the same molecule?
**A.** 0.0005 µM

**Q.** How did the Ki [1] turn out when `CC[C@@H](C[C@H]1COC(N)=N1)c1ccc(NC(=O)Nc2ccc(C(F)(F)F)cc2)cc1` [Example 13, 1-{4-[(S)-1-((S)-2-Amino-4,5-dihydro-oxazol-4-ylmethyl)-propyl]-phenyl}-3-(4-trifluoromethyl-phenyl)-urea] was run?
**A.** 0.0007 µM

**Q.** And the Ki [2]?
**A.** 0.0023 µM

**Q.** Which Ki [1] does the source give for `NC1=N[C@@H](CCc2ccc(NC(=O)c3ccc(Cl)cc3)cc2)CO1` [Example 9, N-{4-[2-((S)-2-Amino-4,5-dihydro-oxazol-4-yl)-ethyl]-phenyl}-4-chloro-benzamide] here?
**A.** 0.0002 µM

**Q.** What about the Ki [2] of the same molecule?
**A.** 0.0004 µM

**Q.** Which results are given for `CCOc1cnc(C(=O)Nc2ccc(CC[C@@H]3N=C(N)O[C@H]3C)cc2)cn1` [Example 218, 5-Ethoxy-pyrazine-2-carboxylic acid {4-[2-((4S,5S)-2-amino-5-methyl-4,5-dihydro-oxazol-4-yl)-ethyl]-phenyl}-amide]?
**A.** Ki [1]: 0.0014 µM; Ki [2]: 0.0035 µM

**Q.** For `COC(C(=O)Nc1ccc(CC[C@H]2COC(N)=N2)cc1)c1ccc(Br)cc1` (stereo partly drawn) [Example 73, N-{4-[2-((S)-2-Amino-4,5-dihydro-oxazol-4-yl)-ethyl]-phenyl}-2-(4-bromo-phenyl)-2-methoxy-acetamide], which Ki [1] is on record?
**A.** 0.0026 µM

**Q.** What about the Ki [2] of the same molecule?
**A.** 0.0049 µM

**Q.** For `CCOc1ccc(CC(=O)Nc2ccc(CC[C@H]3COC(N)=N3)cc2)cc1` [Example 66, N-{4-[2-((S)-2-Amino-4,5-dihydro-oxazol-4-yl)-ethyl]-phenyl}-2-(4-ethoxy-phenyl)-acetamide], which Ki [1] is on record?
**A.** 0.0026 µM

**Q.** And the Ki [2]?
**A.** 0.0017 µM

**Q.** Which Ki [1] does the source give for `NC1=N[C@@H](CCc2ccc(NC(=O)c3ccc(F)nc3F)cc2)CO1` [Example 110, N-{4-[2-((S)-2-Amino-4,5-dihydro-oxazol-4-yl)-ethyl]-phenyl}-2,6-difluoro-nicotinamide] here?
**A.** 0.0054 µM

**Q.** What about the Ki [2] of the same molecule?
**A.** 0.0048 µM

**Q.** `Cc1cc(C)nc(C(=O)Nc2ccc(CC[C@H]3COC(N)=N3)cc2)c1` [Example 157, (S)-N-(4-(2-(2-Amino-4,5-dihydrooxazol-4-yl)ethyl)phenyl)-4,6-dimethylpicolinamide] was tested. Which Ki [1] did it give?
**A.** 0.0019 µM

**Q.** And the Ki [2]?
**A.** 0.0006 µM

**Q.** For `NC1=N[C@@H](CCc2ccc(NC(=O)c3ccc(-n4cccn4)nc3)cc2)CO1` [Example 85, N-{4-[2-((S)-2-Amino-4,5-dihydro-oxazol-4-yl)-ethyl]-phenyl}-6-pyrazol-1-yl-nicotinamide], which Ki [1] is on record?
**A.** 0.0012 µM

**Q.** And the Ki [2]?
**A.** 0.0015 µM

**Q.** For `NC1=N[C@@H](CCc2ccc(NC(=O)Nc3ncc(Cl)cn3)cc2)CO1` [Example 151, 1-{4-[2-((S)-2-Amino-4,5-dihydro-oxazol-4-yl)-ethyl]-phenyl}-3-(5-chloro-pyrimidin-2-yl)-urea], which Ki [1] is on record?
**A.** 0.0071 µM

**Q.** What about the Ki [2] of the same molecule?
**A.** 0.0028 µM

**Q.** For `CC1(C(=O)Nc2ccc(CC[C@H]3COC(N)=N3)cc2)CC1` [Example 41, 1-Methyl-cyclopropanecarboxylic acid {4-[2-((S)-2-amino-4,5-dihydro-oxazol-4-yl)-ethyl]-phenyl}-amide], which Ki [1] is on record?
**A.** 0.0091 µM

**Q.** And the Ki [2]?
**A.** 0.0094 µM

**Q.** `NC1=N[C@@H](CCc2ccc(NC(=O)c3ccc(OCC(F)(F)F)nc3)cc2)CO1` [Example 113, N-{4-[2-((S)-2-Amino-4,5-dihydro-oxazol-4-yl)-ethyl]-phenyl}-6-(2,2,2-trifluoro-ethoxy)-nicotinamide] was tested. Which Ki [1] did it give?
**A.** 0.0006 µM

**Q.** What about the Ki [2] of the same molecule?
**A.** 0.001 µM

**Q.** How did the Ki [1] turn out when `NC1=N[C@@H](CCc2ccc(NC(=O)OCc3ccc(Cl)cc3)cc2)CO1` [Example 146, {4-[2-((S)-2-Amino-4,5-dihydro-oxazol-4-yl)-ethyl]-phenyl}-carbamic acid 4-chloro-benzyl ester] was run?
**A.** 0.0001 µM

**Q.** And the Ki [2]?
**A.** 0.0003 µM
